Read-outs that look alike come from different tables or passages of the source.
Tests used:
[1] = target: T1, human TRPV3 (Homo sapiens, UniProt Q8NET8); assay: In vitro antagonism of recombinant human TRPV3 activation (FLIPR Tetra calcium assay); assay type: cell-based; settings: HEK293 cells stably expressing human TRPV3, agonist 2-APB at 80 μM
T1 construct: expressed in transfected cells
T1 sequence (Q8NET8 1-790): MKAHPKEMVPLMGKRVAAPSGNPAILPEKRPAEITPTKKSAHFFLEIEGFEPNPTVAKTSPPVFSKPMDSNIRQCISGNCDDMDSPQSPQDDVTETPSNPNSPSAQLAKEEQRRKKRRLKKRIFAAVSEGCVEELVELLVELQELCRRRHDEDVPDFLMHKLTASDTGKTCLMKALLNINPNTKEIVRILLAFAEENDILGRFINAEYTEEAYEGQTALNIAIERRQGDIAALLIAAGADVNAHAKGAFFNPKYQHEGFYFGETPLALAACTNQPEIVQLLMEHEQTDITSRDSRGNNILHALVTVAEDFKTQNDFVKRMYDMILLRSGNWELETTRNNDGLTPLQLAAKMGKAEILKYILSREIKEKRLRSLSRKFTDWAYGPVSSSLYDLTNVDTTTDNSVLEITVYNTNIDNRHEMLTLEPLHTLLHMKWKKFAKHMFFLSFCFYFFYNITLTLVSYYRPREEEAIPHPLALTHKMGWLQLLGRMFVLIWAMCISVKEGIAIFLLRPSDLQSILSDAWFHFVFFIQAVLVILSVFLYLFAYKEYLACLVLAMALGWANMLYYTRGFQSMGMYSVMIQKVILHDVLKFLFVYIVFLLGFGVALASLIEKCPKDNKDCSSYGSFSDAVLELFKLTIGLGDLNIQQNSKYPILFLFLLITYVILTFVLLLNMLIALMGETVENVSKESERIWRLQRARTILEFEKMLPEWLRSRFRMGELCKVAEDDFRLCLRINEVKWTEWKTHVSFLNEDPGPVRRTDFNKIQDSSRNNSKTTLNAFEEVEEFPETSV
Method: Test compounds were evaluated for ability to antagonize the activation of recombinant human TRPV3 using FLIPR® Tetra cellular screening. Specifically, on the day prior to the experiment recombinant HEK293 cells that stably express human TRPV3 were removed from tissue culture flasks and plated in growth medium at 20,000 cells/well into Poly-d-lysine coated black/clear 384-well Plate (Corning, 3845) using a Multidrop® dispenser (ThermoScientific, Waltham, Mass.). Prior to the start of the assay, the medium was removed by aspiration, and cells were loaded with 30 μL no-wash FLIPR® Calcium-4 dye (λEX=470-495 nm, λEM=515-575 nm; Molecular Devices, Sunnyvale, Calif.). The cells were then incubated for 90-120 minutes in the dark prior to addition of the test compound.
A double-addition protocol was used. The test compound (i.e., the TRPV3 antagonist) was added at the 10 second time point, followed by the addition of a TRPV3 agonist three minutes later. Each test compound evaluated was first dissolved in DMSO to prepare a 10 mM stock solution. A solution (5×) of the test compound was then prepared in DPBS (Dulbecco's Phosphate Buffered Saline) and 10 μl, of that solution was added to the cells at a delivery rate of 40 μL/sec. The TRPV3 agonist used to activate human TRPV3 expressed by the […] was 2-aminoethoxy-diphenyl borate (2-APB; Tocris Cookson, Ellisville, Mo.) at 80 μM. Final assay volume was 50 μl, Total length of an experimental run was 10 minutes.
Changes in fluorescence were measured over time using the FLIPR® instrument. The intensity of the fluorescence was captured and digitally transferred to an interfaced computer. The maximum response minus minimum response was calculated and expressed as the percentage of the maximum 2-APB response in the absence of antagonist. The concentration of 2-APB corresponds to its EC80.
Table 1 reports the IC50 values measured for the test compounds as human TRPV3 antagonists. […] Actual measured values are shown parenthetically after the reported range. In most cases, the values reported are average values from at least two runs (i.e., n≧2).

[2] = In vitro human microsomal stability assay; assay type: in vitro ADME; settings: for HUMAN MICROSOMAL STABILITY (% REMAINING AFTER 30 MINUTES): microsomes, 0.5 h, 0.5 μM, pH 7.4; for HUMAN […] (% REMAINING AFTER 30 MINUTES): human liver microsomes, 0.5 μM substrate, 0.25 mg/mL microsomal protein, pH 7.4, 37° C., NADPH
Method: (§1) Test compounds were evaluated for metabolic stability in an in vitro rat microsomal stability assay using rat liver microsomes (Sprague-Dawley, from BD Biosciences) and/or an in vitro human microsomal stability assay using human liver microsomes (Xenotech). […] Incubations were carried out at 37° C. with a final incubation volume of 135 μL. […] A 1.5 μL aliquot of reduced nicotine adenine disphosphonucleotide (NADPH) (Chem-Impex Int'L Inc., Lot 12532024) was also added to the time-zero plates.

[3] = In vitro rat microsomal stability assay; assay type: in vitro ADME, rat (Sprague-Dawley); settings: for RAT MICROSOMAL STABILITY (% REMAINING AFTER 30 MINUTES): Sprague-Dawley, microsomes, 0.5 h, 0.5 μM, pH 7.4; for RAT […] (% REMAINING AFTER 30 MINUTES): rat liver microsomes (Sprague-Dawley), 0.5 μM substrate, 0.25 mg/mL microsomal protein, pH 7.4, 37° C., NADPH
Method: as §1

[4] = actual measured value shown parenthetically, in most cases average of at least two runs, read-out: IC50
[5] = reported range, read-out: IC50 (range class)

SMILES	IC50 [1, 4]	RAT MICROSOMAL STABILITY (% REMAINING AFTER 30 MINUTES) [3]	other results
OC1CC(c2ccc(C(F)(F)F)cc2)([C@H](O)c2ccccn2)C1 (mixture of isomers) [Example 166, 3-[(S)-hydroxy(pyridin-2-yl)methyl]-3-[4-(trifluoromethyl)phenyl]-cyclobutanol]	5.94 µM	>85%	HUMAN MICROSOMAL STABILITY (% REMAINING AFTER 30 MINUTES) [2]: >85%
OC1CC(c2ccc(C(F)(F)F)cc2)([C@@H](O)c2ccccn2)C1 (mixture of isomers) [Example 199, 3-[(R)-hydroxy(pyridin-2-yl)methyl]-3-[4-(trifluoromethyl)phenyl]-cyclobutanol]	> 20 µM	>85%	IC50 [1, 5]: > 20 µM; HUMAN MICROSOMAL STABILITY (% REMAINING AFTER 30 MINUTES) [2]: >85%
O[C@@H](c1ccccn1)[C@]1(c2cc(C(F)(F)F)ccn2)C[C@H](O)C1 (relative stereo) [Example 290, cis-3-[(R)-hydroxy(pyridin-2-yl)methyl]-3-[4-(trifluoromethyl)pyridin-2-yl]cyclobutanol]	–	–	IC50 [1, 5]: > 20 µM; HUMAN […] (% REMAINING AFTER 30 MINUTES) [2]: >85%; RAT […] (% REMAINING AFTER 30 MINUTES) [3]: 71%
OC(c1ccccn1)C1(C2=CCCOC2)CCC1 (single isomer, unassigned) [Example 269, [1-(5,6-dihydro-2H-pyran-3-yl)cyclobutyl](pyridin-2-yl)methanol]	–	12%	HUMAN MICROSOMAL STABILITY (% REMAINING AFTER 30 MINUTES) [2]: 40%
OC(c1ccccn1)C1(C2=COCCC2)CCC1 (single isomer, unassigned) [Example 270, [1-(3,4-dihydro-2H-pyran-5-yl)cyclobutyl](pyridine-2-yl)methanol]	–	0.48%	HUMAN MICROSOMAL STABILITY (% REMAINING AFTER 30 MINUTES) [2]: 17%
CC1(O)CC(c2cncc(C(F)(F)F)c2)(C(O)c2ccccn2)C1 (single isomer, unassigned) [Example 309]	3.05 µM	–	HUMAN MICROSOMAL STABILITY (% REMAINING AFTER 30 MINUTES) [2]: >85%
CC(c1cccc(C(F)(F)F)c1)C1(C(O)c2ccccn2)CCC1 (centres unmarked) [Example 54, pyridin-2-yl(1-{1-[3-(trifluoromethyl)phenyl]ethyl}cyclobutyl)methanol]	22 µM	0.21%	–
OC(C1CCc2cccnc21)C1(c2ccccc2OC(F)(F)F)CCC1 (stereo not drawn) [Example 193, (anti)-6,7-dihydro-5H-cyclopenta[b]pyridin-7-yl{1-[2-(trifluoromethoxy)-phenyl]cyclobutyl}methanol]	–	–	HUMAN […] (% REMAINING AFTER 30 MINUTES) [2]: 0.02%; RAT […] (% REMAINING AFTER 30 MINUTES) [3]: <0.01%
NC1CCCC1C(O)C1(c2cccc(OC(F)(F)F)c2)CCC1 (centres unmarked) [Example 208, (2-aminocyclopentyl) {1-[3-(trifluoromethoxy)phenyl]cyclobutyl}methanol]	2.06 µM	36%	–
NC1CCCCC1C(O)C1(c2ccc(OC(F)(F)F)cc2)CCC1 (centres unmarked) [Example 209, (2-aminocyclohexyl) {1-[4-(trifluoromethoxy)phenyl]cyclobutyl}methanol]	4.6 µM	–	–
NC1CCCCC1C(O)C1(c2cccc(OC(F)(F)F)c2)CCC1 (centres unmarked) [Example 210, (2-aminocyclohexyl) {1-[3-(trifluoromethoxy)phenyl]cyclobutyl}methanol]	3.31 µM	–	–
NC1CCCCC1C(O)C1(c2ccc(Cl)c(Cl)c2)CCC1 (centres unmarked) [Example 211, (2-aminocyclohexyl)[1-(3,4-dichlorophenyl)cyclobutyl]methanol]	6.17 µM	–	–
N[C@H]1CCC[C@@H]1[C@H](O)C1(c2ccc(Cl)c(Cl)c2)CCC1 [Example 219, (S)-[(1S,2S)-2-aminocyclopentyl][1-(3,4-dichlorophenyl)cyclobutyl]-methanol]	3.07 µM	–	–
OC(c1ccccn1)C1(C2CCOCC2)CCC1 (centres unmarked) [Example 239, pyridin-2-yl[1-(tetrahydro-2H-pyran-4-yl)cyclobutyl]methanol]	–	0.072%	HUMAN MICROSOMAL STABILITY (% REMAINING AFTER 30 MINUTES) [2]: 57%
OC(c1ccccn1)C1(C2=CCOCC2)CCC1 (centres unmarked) [Example 252, [1-(3,6-dihydro-2H-pyran-4-yl)cyclobutyl](pyridin-2-yl)methanol]	> 20 µM	–	IC50 [1, 5]: > 20 µM
CC1(O)CC(c2cccc(OC(F)(F)F)c2)(C(O)c2ccccn2)C1 [Example 263, trans-3-[(S)-hydroxy(pyridin-2-yl)methyl]-1-methyl-3-[3-(trifluoromethoxy)phenyl]cyclobutanol]	2.8 µM	>85%	–
CC1(O)CC(c2ccc(OC(F)(F)F)cc2)(C(O)c2ncccn2)C1 [Example 311, (trans)-3-((R)-hydroxy(pyrimidin-2-yl)methyl)-1-methyl-3-(4-(trifluoromethoxy)phenyl)cyclobutanol]	> 20 µM	>85%	IC50 [1, 5]: > 20 µM

Continued, in another order:

IC50 [1, 4]	RAT MICROSOMAL STABILITY (% REMAINING AFTER 30 MINUTES) [3]	SMILES	other results
1.24 µM	<0.01%	COC1CC(c2ccc(Cl)c(Cl)c2)([C@H](O)c2ccccn2)C1 (mixture of isomers) [Example 151, (S)-[1-(3,4-dichlorophenyl)-3-methoxycyclobutyl](pyridin-2-yl)methanol]	HUMAN MICROSOMAL STABILITY (% REMAINING AFTER 30 MINUTES) [2]: 32%
0.74 µM	0.27%	CCN(CC)c1ccc(C2(C(O)c3ccccn3)CCC2)cc1 (centres unmarked) [Example 18, {1-[4-(diethylamino)phenyl]cyclobutyl}(pyridin-2-yl)methanol]	–
0.83 µM	7.7%	OC(c1ncccn1)C1(c2cccc(OC(F)(F)F)c2)CCC1 (centres unmarked) [Example 37, pyrimidin-2-yl{1-[3-(trifluoromethoxy)phenyl]cyclobutyl}methanol]	–
0.06 µM	9.5%	OC(c1ncccn1)C1(c2ccc(Cl)c(Cl)c2)CCC1 (centres unmarked) [Example 38, [1-(3,4-dichlorophenyl)cyclobutyl] (pyrimidin-2-yl)methanol]	–
1.22 µM	–	NC1CCCC1C(O)C1(c2ccccc2OC(F)(F)F)CCC1 (centres unmarked) [Example 214, (2-aminocyclopentyl) {1-[2-(trifluoromethoxy)phenyl]cyclobutyl}methanol]	–
0.77 µM	–	NC1CCCC1C(O)C1(c2ccc(Cl)c(Cl)c2)CCC1 (centres unmarked) [Example 215, (2-aminocyclopentyl)[1-(3,4-dichlorophenyl)cyclobutyl]methanol]	–
1.73 µM	–	N[C@H]1CCC[C@H]1[C@@H](O)C1(c2ccc(Cl)c(Cl)c2)CCC1 [Example 218, (R)-[(1R,2S)-2-aminocyclopentyl][1-(3,4-dichlorophenyl)cyclobutyl]-methanol]	–

Source: US8772499B2, “TRPV3 modulators” (AbbVie Inc., priority 2011, dated 2014)
